From patent US20240300980A1, “HETEROCYCLIC COMPOUNDS AS KRAS INHIBITOR, AND PREPARATION THEREFOR AND USE THEREOF IN TREATMENT” (SHANGHAI KECHOW PHARMA, INC., priority 2021, published 2024)
pIC50: −log10 of the molar value.

These compounds were tested on AGS cells (KRAS^G12D) (assay: Detection of cell proliferation in vitro by MTT/MTS method (cell activity experiment)). Conditions: AGS cells; MTT/MTS; 3 days of drug treatment; read-out: AGS IC50.
Type: cell-based
In short: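 KRAS G12D AGS cells seeded at 1000 per well, compound added 24 h later, 0.5% final DMSO. Viability read after 3 days of treatment by MTT (solubilised in DMSO) or MTS, 4 h, absorbance 490 nm. IC50 from dose–response curves versus DMSO control.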

Structure (SMILES) | pIC50
C#Cc1c(F)ccc2cc(O)cc(-c3ccc4c(N5C[C@H]6CC[C@@H](C5)[C@@H]6O)nc(OC[C@@]56CCCN5C[C@H](F)C6)nc4c3F)c12 [Example 118, (1R,5S,8R)-3-(7-(8-ethynyl-7-fluoro-3-hydroxynaphthalen-1-yl)-8-fluoro-2-(((2R,7aS)-2-fluorotetrahydro-1H-pyrrolizin-7a(5H)-yl)methoxy)quinazolin-4-yl)-3-azabicyclo [3.2.1]octan-8-ol] | < 5.60

Same assay, conditions: Homo sapiens, AGS, 72 h, AGS cells; MTT/MTS; 3 days of drug treatment; read-out: AGS IC50

Structure (SMILES) | pIC50
N#Cc1c(OC[C@@]23CCCN2C[C@H](F)C3)nc2c(F)c(-c3cc(O)cc4ccc(F)c(F)c34)ncc2c1N1C[C@H]2CC[C@@H](C1)N2 [Example 193, 4-((1R,5S)-3,8-diazabicyclo[3.2.1]octan-3-yl)-7-(7,8-difluoro-3-hydroxynaphthalen-1-yl)-8-fluoro-2-(((2R,7aS)-2-fluorotetrahydro-1H-pyrrolizin-7a(5H)-yl)methoxy)-1,6-naphthyridine-3-carbonitrile] | 6.90
CCC1C(=O)Cc2cc(O)cc(-c3ncc4c(N5C[C@H]6CC[C@@H](C5)N6)nc(OC[C@@]56CCCN5C[C@H](F)C6)nc4c3F)c21 (stereo partly drawn) [Example 263, 7-(4-((1R,5S)-3,8-diazabicyclo[3.2.1]octan-3-yl)-8-fluoro-2-(((2R,7aS)-2-fluorotetrahydro-1H-pyrrolizin-7a(5H)-yl)methoxy)pyrido[4,3-d]pyrimidin-7-yl)-1-ethyl-5-hydroxy-1,3-dihydro-2H-inden-2-one] | < 5.00
C#Cc1c(F)ccc2cc(O)cc(-c3ccc4c(N5C[C@H]6CC[C@@H](C5)S6)nc(OC[C@@]56CCCN5C[C@H](F)C6)nc4c3F)c12 [Example 158, 4-(4-((1R,5S)-8-thia-3-azabicyclo[3.2.1]octan-3-yl)-8-fluoro-2-(((2R,7aS)-2-fluorotetrahydro-1H-pyrrolizin-7a(5H)-yl)methoxy)quinazolin-7-yl)-5-ethynyl-6-fluoronaphthalen-2-ol] | 6.63
CCc1coc2cc(O)cc(-c3ncc4c(N5C[C@H]6CC[C@@H](C5)N6)nc(OC[C@@]56CCCN5C[C@H](F)C6)nc4c3F)c12 [Example 244, 4-(4-((1R,5S)-3,8-diazabicyclo[3.2.1]octan-3-yl)-8-fluoro-2-(((2R,7aS)-2-fluorotetrahydro-1H-pyrrolizin-7a(5H)-yl)methoxy)pyrido[4,3-d]pyrimidin-7-yl)-3-ethylbenzofuran-6-ol] | 7.23
CCC1CCCc2cc(O)cc(-c3cc4nc(OC[C@@]56CCCN5C[C@H](F)C6)nc(N5C[C@H]6CC[C@@H](C5)N6)c4c4occc34)c21 (stereo partly drawn) [Example 388, 4-(9-((1R,5S)-3,8-diazabicyclo[3.2.1]octan-3-yl)-7-(((2R,7aS)-2-fluorotetrahydro-1H-pyrrolizin-7a(5H)-yl)methoxy)furo[2,3-f]quinazolin-4-yl)-5-ethyl-5,6,7,8-tetrahydronaphthalen-2-ol] | 6.31
C#Cc1c(F)ccc2cc(O)cc(-c3c(CCC#N)cc4c(N5C[C@H]6CC[C@@H](C5)N6)nc(OC[C@@]56CCCN5C[C@H](F)C6)nc4c3F)c12 [Example 378, 3-(4-((1R,5S)-3,8-diazabicyclo[3.2.1]octan-3-yl)-7-(8-ethynyl-7-fluoro-3-hydroxynaphthalen-1-yl)-8-fluoro-2-(((2R,7aS)-2-fluorotetrahydro-1H-pyrrolizin-7a(5H)-yl)methoxy)quinazolin-6-yl)propanenitrile] | 6.80
C#Cc1cccc2cc(O)cc(-c3ccc4c(N5C[C@H]6CC[C@@H](C5)N6)c(C#N)c(OC[C@@]56CCCN5C[C@H](F)C6)nc4c3F)c12 [Example 182, 4-((1R,5S)-3,8-diazabicyclo[3.2.1]octan-3-yl)-7-(8-ethynyl-3-hydroxynaphthalen-1-yl)-8-fluoro-2-(((2R,7aS)-2-fluorotetrahydro-1H-pyrrolizin-7a(5H)-yl)methoxy)quinoline-3-carbonitrile] | 6.27
C#Cc1c(F)ccc2cc(O)cc(-c3ncc4c(N5CC6CCC5CN6)nc(OC[C@@]56CCCN5C[C@H](F)C6)nc4c3F)c12 (stereo partly drawn) [Example 46, 4-(4-(2,5-diazabicyclo [2.2.2]octan-2-yl)-8-fluoro-2-(((2R,7aS)-2-fluorotetrahydro-1H-pyrrolizin-7a(5H)-yl)methoxy)pyrido[4,3-d]pyrimidin-7-yl)-5-ethynyl-6-fluoronaphthalen-2-ol] | 7.89
Oc1cc(-c2ncc3c(N4C[C@H]5CC[C@@H](C4)N5)nc(OC[C@@]45CCCN4C[C@H](F)C5)nc3c2F)c2c(c1)C1CC1C2 (stereo partly drawn) [Example 245, 5-(4-((1R,5S)-3,8-diazabicyclo[3.2.1]octan-3-yl)-8-fluoro-2-(((2R,7aS)-2-fluorotetrahydro-1H-pyrrolizin-7a(5H)-yl)methoxy)pyrido[4,3-d]pyrimidin-7-yl)-1,1a,6,6a-tetrahydrocyclopropa[a]inden-3-ol] | 7.60
C=C1CCCc2cc(O)cc(-c3ncc4c(N5C[C@H]6CC[C@@H](C5)N6)nc(OC[C@@]56CCCN5C[C@H](F)C6)nc4c3F)c21 [Example 253, 4-(4-((1R,5S)-3,8-diazabicyclo[3.2.1]octan-3-yl)-8-fluoro-2-(((2R,7aS)-2-fluorotetrahydro-1H-pyrrolizin-7a(5H)-yl)methoxy)pyrido[4,3-d]pyrimidin-7-yl)-5-methylene-5,6,7,8-tetrahydronaphthalen-2-ol] | 7.38
C#Cc1c(F)ccc2cc(O)cc(-c3ccc4c(N5C[C@H]6CC[C@@H](C5)N6)nc(OCC5(CN6CCCC6)CC5)nc4c3F)c12 [Example 99, 4-(4-((1R,5S)-3,8-diazabicyclo[3.2.1]octan-3-yl)-8-fluoro-2-((1-(pyrrolidin-1-ylmethyl)cyclopropyl)methoxy)quinazolin-7-yl)-5-ethynyl-6-fluoronaphthalen-2-ol] | 8.06
C#Cc1cccc2cc(O)cc(-c3ncc4c(N5C[C@H]6CC[C@@H](C5)N6)nc(OCC5(CN6CCCC6)CC5)nc4c3F)c12 [Example 1, 4-(4-((1R,5S)-3,8-diazabicyclo[3.2.1]octan-3-yl)-8-fluoro-2-((1-(pyrrolidin-1-ylmethyl)cyclopropyl)methoxy)pyrido[4,3-d]pyrimidin-7-yl)-5-ethynyl naphthalen-2-ol] | 8.09
C#Cc1c(F)ccc2cc(O)cc(-c3ccc4c(N5C[C@H]6CC[C@@H](C5)N6)nc(OC[C@]56CCCN5[C@@H](COC(=O)N(C)C)CC6)nc4c3F)c12 [Example 96, ((3R,7aR)-7a-(((4-((1R,5S)-3,8-diazabicyclo[3.2.1]octan-3-yl)-7-(8-ethynyl-7-fluoro-3-hydroxynaphthalen-1-yl)-8-fluoroquinazolin-2-yl)oxy)methyl)hexahydro-1H-pyrrolizin-3-yl)methyl dimethylcarbamate] | 8.10
Oc1cc2c(c(-c3ccc4c(N5C[C@H]6CC[C@@H](C5)N6)nc(OC[C@@]56CCCN5C[C@H](F)C6)nc4c3F)c1)CCCC2 [Example 420, 4-(4-((1R,5S)-3,8-diazabicyclo[3.2.1]octan-3-yl)-8-fluoro-2-(((2R,7aS)-2-fluorotetrahydro-1H-pyrrolizin-7a(5H)-yl)methoxy)quinazolin-7-yl)-5,6,7,8-tetrahydronaphthalen-2-ol] | 7.22
C#Cc1cccc2cc(O)cc(-c3ccc4c(N5C[C@H]6CC[C@@H](C5)C6(F)F)nc(OC[C@@]56CCCN5C[C@H](F)C6)nc4c3F)c12 [Example 121, 4-(4-((1R,5S)-8,8-difluoro-3-azabicyclo [3.2.1]octan-3-yl)-8-fluoro-2-(((2R,7aS)-2-fluorotetrahydro-1H-pyrrolizin-7a(5H)-yl)methoxy)quinazolin-7-yl)-5-ethynylnaphthalen-2-ol] | < 5.60
